From patent US5278045A, “Method and compositions to screen compounds for enhancement of the cholinergic, dopaminergic and serotonergic function” (Du Pont Merck Pharmaceutical Company, priority 1990, dated 1994) come the findings set out here.

Where no end group is shown, it is not given here.

The first test has as its system DuP 996 binding protein. As to the kind of experiment: Specificity of the DuP 996 binding protein (displacement of tritiated DuP 996 by pharmacological standards). The arrangement: species or system rat.
Conditions: not given
Regarding `CN1CCCC1c1cccnc1` (centres unmarked) [nicotine], the “ability to displace tritiated DuP 996 binding from the binding protein” value (“ability” below) is “None of these pharmacological standards was able to displace”.
On the same count and under the same terms, the entry for `COc1ccc(CCN(C)CCCC(C#N)(c2ccc(OC)c(OC)c2)C(C)C)cc1OC` (centres unmarked) [verapamil] is “None of these pharmacological standards was able to displace”; for `CN1C(=O)CN=C(c2ccccc2)c2cc(Cl)ccc21` [diazepam] it is “None of these pharmacological standards was able to displace”; for `CN1[C@@H]2CC[C@H]1C[C@@H](OC(=O)C(CO)c1ccccc1)C2` (some centres unmarked) [atropine] it is “None of these pharmacological standards was able to displace”.

Still in this test, the particulars now being: receptor and ion channel ligands and neuropeptides against 10 nM tritiated DuP 996.
With `CN/C(=N/CCSCc1nc[nH]c1C)NC#N` [cimetidine], the “ability” value is on record as “None of these pharmacological standards was able to displace”.
Same read-out and setting: to `COc1ccc(CN(CCN(C)C)c2ccccn2)cc1` [pyrilamine] belongs “None of these pharmacological standards was able to displace”; to neurokinin A, “None of these pharmacological standards was able to displace”; to `CC(C)NCC(O)c1ccc(O)c(O)c1` (centres unmarked) [isoproterenol], “None of these pharmacological standards was able to displace”.
Regarding 3,4-aminopyridine, the “ability” value is recorded as “None of these pharmacological standards was able to displace”.
Still for that read-out and setting: the entry for `COC(=O)[C@@H]1[C@H]2C[C@H]3c4[nH]c5ccccc5c4CCN3C[C@@H]2CC[C@@H]1O` [yohimbine] is “None of these pharmacological standards was able to displace”.
The same measure, in the same setting: to `C=CCN1CC[C@]23c4c5ccc(O)c4O[C@H]2C(=O)CC[C@@]3(O)[C@H]1C5` [naloxone] belongs “None of these pharmacological standards was able to displace”; to `O=C(CCCN1CCC(O)(c2ccc(Cl)cc2)CC1)c1ccc(F)cc1` [haloperidol], “None of these pharmacological standards was able to displace”; to `CN[C@H](CC(=O)O)C(=O)O` [N-methyl-D-aspartic acid], “None of these pharmacological standards was able to displace”.
The same measure, in the same setting: the entry for `Nc1ncnc2c1ncn2[C@@H]1O[C@H](CO)[C@@H](O)[C@H]1O` [adenosine] is “None of these pharmacological standards was able to displace”; for neurotensin 8-13 it is “None of these pharmacological standards was able to displace”.
Consider `Cn1c(=O)c2c(ncn2C)n(C)c1=O` [caffeine], for which the “ability” value is on record as “None of these pharmacological standards was able to displace”.
As for cholecystokinin, the “ability” value is listed as “None of these pharmacological standards was able to displace”.
The same measure, in the same setting: to `C=CCN1CCC2(C)c3cc(O)ccc3CC1C2C` (single isomer, unassigned; (+)) [(+)-SKF 10,047] belongs “None of these pharmacological standards was able to displace”; to `NCCCC(=O)O` [GABA], “None of these pharmacological standards was able to displace”; to LHRH: pharmacological standard, “None of these pharmacological standards was able to displace”.
On the same count and under the same terms, the entry for `c1ccc(C2(N3CCCCC3)CCCCC2)cc1` [phencyclidine] is “None of these pharmacological standards was able to displace”; for substance P it is “None of these pharmacological standards was able to displace”.
Still for that read-out and setting: the entry for angiotensin III is “None of these pharmacological standards was able to displace”.
`CC(N)Cc1ccccc1` (centres unmarked) [amphetamine]: the “ability” value is recorded as “None of these pharmacological standards was able to displace”.
As for `C1CCc2nnnn2CC1` [pentylenetetrazol], the “ability” value is “None of these pharmacological standards was able to displace”.
On the same count and under the same terms, the entry for `O=C1C[C@@H]2OCC=C3CN4CC[C@]56c7ccccc7N1[C@H]5[C@H]2[C@H]3C[C@H]46` [strychnine] is “None of these pharmacological standards was able to displace”; for RPPGFSPFR [bradykinin] it is “None of these pharmacological standards was able to displace”; for `CN1CCN2c3ccccc3Cc3ccccc3C2C1` (centres unmarked) [mianserin] it is “None of these pharmacological standards was able to displace”.
Still for that read-out and setting: to ACTH 1-24: pharmacological standard belongs “None of these pharmacological standards was able to displace”; to `NC(=O)CN1CCCC1=O` [piracetam], “None of these pharmacological standards was able to displace”; to `NC[C@H](O)c1ccc(O)c(O)c1` [norepinephrine], “None of these pharmacological standards was able to displace”.
As to veratidine, the “ability” value is listed as “None of these pharmacological standards was able to displace”.
On the same count and under the same terms, to neurokinin B belongs “None of these pharmacological standards was able to displace”; to `CN(C)CCC=C1c2ccccc2CCc2ccccc21` [amitriptyline], “None of these pharmacological standards was able to displace”.

In a further test the test system is ACh release. Put plainly: Neurotransmitter release assay: stimulated ACh release from brain slices. The arrangement: species or system rat. The note with it: concentration to enhance stimulated release of ACh by 100% (2-fold) over control, from dose response curves. As for the experimental part:
Male Wistar rats weighing 175-200 g were euthanatized and the brains were dissected out immediately. Slices (0.3 mm thick) from the parietal cortex were prepared manually by using a recessed Lucite® guide. Slices (1.5 mm thick) from the hippocampus and the caudate nucleus were prepared by using a slotted brain holder. All slices were subsequently cut into 0.25×0.25 mm squares with a McIlwain tissue chopper.
Labeling of transmitter stores in slices was prepared by the following methods. For ACh release, slices (approximately 100 mg wet weight) were incubated in 10 ml Krebs-Ringer (KR) medium containing (mM): NaCl(116), KCl(3), CaCl2 (1.3), MgCl2 (1.2), KH2 PO4 (1.2), Na2 SO4 (1.2), NaHCO3 (25) and glucose(11), to which 10 μCi ^3 H-choline (specific activity approx. 80 Ci/mmol: NEN) and 10 nmol unlabeled choline had been added to give a final concentration of 10^-6 M. Incubation was carried out for 30 min at 37° C. under a steady flow of 95% O2 /5% CO2. Under these conditions, part of the radioactive choline taken up is converted into radioactive ACh by cholinergic nerve endings, stored in synaptic vesicles, and released upon depolarization by high-K^+ -containing medium [Molenaar et al., 1973a]. For dopamine (DA), serotonin (5-HT), and norepinephrine (NE) release, slices (approximately 100 mg wet weight) were incubated in KR medium containing 0.01 mM nialamide at 37° C. under a steady flow of 95% O2 /5% CO2. The MAO-inhibitor nialamide was added to the medium in order to inhibit metabolism to the monoamines. Incubation was for 30 min in 10 ml of KR medium to which 10 μCi ^3 H-dopamine, ^3 H-norepinephrine, or ^3 H-5-hydroxytryptamine (specific activity 30, 45, and 78 Ci/mmol, respectively: all from NEN) had been added.
Separate experiments were performed for the release of each neurotransmitter. After labeling of the transmitter stores, the slices were washed three times with non-radioactive KR medium and transferred to a superfusion apparatus to measure the drug effects on transmitter release [Schoemaker et al., Psychopharmacology 74, 137 (1981)]. The superfusion apparatus consisted of 10 thermo-jacketed glass columns of 5 mm diameter which were provided with GF/F glass fiber filters to support the brain slices (approximately 10 mg tissue/column). Superfusion was carried out with KR medium at a rate of 0.3 ml/min. For ACh release, 10^-5 M hemicholinium-3 was added to the medium to prevent the uptake of choline formed during superfusion from phospholipids and released ACh, so that it could not be subsequently converted into newly synthesized ACh, which would be released in preference to the pre-formed, labeled ACh. The medium was delivered by a 25-channel peristaltic pump (Ismatec; Brinkman) and maintained at 37° C. by a thermostated stainless-steel heating coil before entering the superfusion column. Each column was provided with a four-way slider valve (Beckman Instruments) which allowed rapid change of low-to-high-K^+ -KR-medium and with two 10-channel, 3-way valves which were used to change form drug-free to drug-containing low- and high-K^+ -KR media.
After 15 min washout of non-specifically bound radioactivity during superfusion, the collection of fractions of 4 min (1.2 ml) each was started. After 3×4 min, the KR medium was changed to a KR medium with 25 mM KCl (ACh, 5-HT release) or 12.5 mM KCl (DA release) (high K^+ -KR medium; S1). Depolarization-induced stimulation of release by high-K^+ -KR medium was then substituted by drug- or vehicle-containing low- and high-K^+ -KR medium and superfusion continued for 3×4 min with low-K^+ -KR medium, for 1×4 min with high-K^+ -KR medium (S2), and for 2×4 min with low-K^+ -KR medium.
Compounds were added to the medium by 100-fold dilution of appropriate stock solutions (in 0.9% NaCl/H2 O) with either low- or high-K^+ -KR medium.
All superfusion fractions were collected in liquid scintillation counting vials.
Take “3,3-Bis(3-pyridinylmethyl)-1-phenyl-1H-indol-2(3H)one N-oxide [Compound 23]”: the “ACh Release EC100” value is listed as 100,000 nM.
